Experimental data from paper PMC11950731 (Synthetic and Systems Biotechnology, 2025).

How the values were obtained:
PpUGT91AH4 = assay: LC-MS glucosyltransferase assay, varied trillin; type: biochemical, Paris polyphylla; details: saturating UDP-glucose; assay buffer 50 mM Tris-HCl pH 8.0, 1 mM MgCl2, 37 °C
PpUGT91AH5 = assay: LC-MS glucosyltransferase assay, varied trillin; type: biochemical, Paris polyphylla; details: saturating UDP-glucose; assay buffer 50 mM Tris-HCl pH 8.0, 1 mM MgCl2, 37 °C

Km (PpUGT91AH4): 5.67 ± 0.84 mM
Km (PpUGT91AH5): 7.81 ± 1.2 mM
Compound: C[C@@H]1CC[C@@]2(OC1)O[C@H]1C[C@H]3[C@@H]4CC=C5C[C@@H](O[C@@H]6O[C@H](CO)[C@@H](O)[C@H](O)[C@H]6O)CC[C@]5(C)[C@H]4CC[C@]3(C)[C@H]1[C@@H]2C [trillin]
